Reference: US11690856B2, “Compounds for treating CMV related diseases” (INSERM (INSTITUT NATIONAL DE LA SANTE ET DE LA RECHERCHE …, priority 2017, dated 2023)

Legend:
Format in all cases: in vivo, rat
microglia [1] = assay: Immunohistochemistry and cell counting of microglia (Iba1, Ed1/Cd68) in CMV-infected pup brain; conditions: P1, lateral ventricular area; per os to dam E0 to birth; CMV untreated 42.74%, MEM 14.28%
Protocol: Immunohistochemistry experiments were carried out on coronal brain slices (50-100 μm, vibratome, Microm; 14 μm, cryostat, Leica) as described previously (9) with the following primary (anti-Iba1: 1/500, Wako; anti-Cd68, Ed1 clone: 1/200, Millipore) and secondary (Alexa Fluor 568 or 647-conjugated goat anti-rabbit or anti-mouse IgGs; Life Technologies) antibodies. Hoescht 33258 (1:2000, Sigma) was used for nuclei staining.
For cell counting analyses, at least three adjacent brain sections were analyzed throughout the entire z-dimension for each sample using confocal microscopy. […] Cells were counted manually in each brain with Cell Profiler cell image analysis software (Broad Institute Cambridge, Mass., USA). For each channel of stack images, mean image intensity was measured using “MeasureImageIntensity” module and cells were identified with “IdentifyPrimaryObjects” module, in which Min and Max typical diameter of objects was set between 20 and 80 pixel units, respectively, and threshold was corrected by the mean intensity measured previously. Then, using mask images generated with the aforementioned module, colocalization between channels was evaluated with “RelateObjects” and “MaskObjects” in order to determine the number of overlapping objects. Finally, data were exported to a spreadsheet containing the number of quantified cells for each staining and of colocalizations. […]

CMV-infected pups [2] = assay: Postnatal survival of pups infected with CMV in utero
Protocol: (§1) Wistar rats (Janvier Labs, France) were raised and mated at INMED Post Genomic Platform (PPGI) animal facility. Rat cytomegalovirus (rat CMV) recombinant Maastricht strain (RCMV-Δ145-147-gfp) with a green fluorescent protein (GFP) expression cassette, and its production, purification and titration, were reported previously (17). In utero icv injections were performed at E15 as previously described (9,18) in embryos from timed pregnant rats that were anaesthetized with ketamine (100 mg/kg)/xylazine (10 mg/kg). […] Microglia status was modified in the embryos in vivo with doxycycline per os given to the mother throughout pregnancy (200 mg/kg in food pellet chow, Bioserv).
Data were expressed as means ±s.e.m. unless otherwise stated. Non-parametric Mann Whitney test (two-tailed) followed by Bonferroni correction if needed, and non-parametric Kruskall-Wallis test to detect heterogeneous distribution between groups followed by Dunn's post test for multiple comparisons. were used whenever appropriate. Univariate Cox analysis and Fisher's exact test (two-tailed) were used to compare between survival distributions and rates and parametric Student's t test was used to compare between weight gains, whereas Chi-square test with Bonferroni correction and mixed model for repeated data using PROC GLIMMIX with sas 9.4 were used for all other phenotypic comparisons between groups of animals.

CMV-infected pups [3] = assay: Righting reflex sensorimotor test; conditions: treated in utero vs untreated infected pups; P1-P20; p=0.025
Protocol: as §1
(§2) For righting reflex evaluation, rat pups were placed in a supine position, and the time required to flip to the prone position was measured. For the cliff aversion reflex, animals were placed with their forepaws overhanging the edge of a board; the time required to turn >90° away from the edge was recorded. […] Generalized tonic-clonic epileptic seizures were detected visually, usually after animal handling, especially during cage changing and behavioral testing. […] For each rat, the reference electrode was inserted beneath the pinna of the assessed ear, the positive electrode beneath the skin on the vertex of the head, the ground electrode on the animal's back. […] Impedances were monitored to be below 2000Ω. […]

CMV-infected pups [4] = assay: Cliff aversion reflex sensorimotor test; conditions: treated in utero vs untreated infected pups; P1-P20; p<10^-4
Protocol: as §1, §2

CMV-infected pups [5] = assay: Hindlimb paralysis, determined visually
Protocol: as §1, §2

CMV-infected pups [6] = assay: Generalized tonic-clonic epileptic seizures, detected visually
Protocol: as §1, §2

microglia [7] = assay: Flow cytometry of brain leukocytes (CD45, CD11b/c, RT1B) for microglia status
Protocol: as §1
Leukocytes from brains obtained from anesthetized P1 or P7 pups were isolated as previously described (9). 1 to 3×10^6 leukocytes were incubated with Zombie NIR Fixable Viability kit (1:200; Bio legend) for 20 min at RT. Fc receptors were blocked using mouse anti-rat CD32 antibody (FcγII receptor, clone D34-485) for 10 min. at 4° C. to prevent against nonspecific binding. Cells were then stained with antibodies against combinations of cell surface markers as previously listed and described (9). An average of 1.3×10^5 living singlet cells were analyzed per brain equivalent on a BD LSRFortessa cell cytometer and raw data were analyzed using FACSDiva V8.0 software (BD Biosciences).

C[C@H]1c2cccc(O)c2C(=O)C2=C(O)[C@]3(O)C(=O)C(C(N)=O)=C(O)[C@@H](N(C)C)[C@@H]3[C@@H](O)[C@@H]21 [doxycycline]
phagocytic activation index (PAI), ratio of Iba1+ Ed1+ cells to total Iba1+ cells (microglia [1]): 17.32%
infected pups survived at P20 (CMV-infected pups [2]; dams treated per os throughout pregnancy, untreated 29.6%): 86.1%
lower risk to postnatal death (CMV-infected pups [2]; first three postnatal weeks, treated in utero vs untreated CMV-infected, p=0.0006): 5.1
success to righting, odds ratio (CMV-infected pups [3]): 2.6
success to cliff aversion, odds ratio (CMV-infected pups [4]): 9.9
CMV-infected pups displaying hindlimb paralysis (CMV-infected pups [5]; first three postnatal weeks, untreated 83.3%, p=0.001): 50%
drop in risk of hindlimb paralysis (CMV-infected pups [5]; treated vs untreated, p=0.03): 6.2 fold
decrease in risk of epileptic seizures (CMV-infected pups [6]; period of evaluation, treated in utero, p<10^-4): 5.9 fold
proportion of epileptic CMV-infected rats (CMV-infected pups [6]; untreated 24%, p=0.12): 11%
proportion of reactive CD45low/int, CD11b/c+, RT1B+ microglia (fraction IV) (microglia [7]; P7, after treatment discontinuation, untreated 58.93%): 55.76%
proportion of MHC class II-positive reactive microglia (fraction IV: CD45low/int, CD11b/c+, RT1B+) (microglia [7]; whole brain at P1, CMV untreated 13.98%, controls 0.73%): 5.66%
